Measured values: article PMC12406256, “Food Additives Inhibit Intestinal Drug Transporters but Have Limited Effect on In Vitro Drug Permeability” (Molecular Pharmaceutics, 2025)
Several values for one entry are separate records, joined by “and”; a condition that tells them apart may be missing. Equal entries are not always repeated. Entries after “also recorded” stand apart in the source; their conditions may differ. Where two headings read alike, the source gives them in different places. Blank lines part the entries; values can stand above or below the compound they belong to.

Legend:
[1] = target: T1, OATP2B1 (Homo sapiens, UniProt O94956); experiment: HEK293 uptake assay, OATP2B1 (5-carboxyfluorescein substrate); type: cell-based; details: food additive 50 μM; for inhibition of OATP2B1-mediated uptake: 5-carboxyfluorescein 2 μM, HEK293 cells, n = 1
T1 construct: expressed in transfected cells; host or cells: HEK293 cells (ATCC) transduced with recombinant OATP2B1 baculovirus
T1 sequence (O94956 1-709): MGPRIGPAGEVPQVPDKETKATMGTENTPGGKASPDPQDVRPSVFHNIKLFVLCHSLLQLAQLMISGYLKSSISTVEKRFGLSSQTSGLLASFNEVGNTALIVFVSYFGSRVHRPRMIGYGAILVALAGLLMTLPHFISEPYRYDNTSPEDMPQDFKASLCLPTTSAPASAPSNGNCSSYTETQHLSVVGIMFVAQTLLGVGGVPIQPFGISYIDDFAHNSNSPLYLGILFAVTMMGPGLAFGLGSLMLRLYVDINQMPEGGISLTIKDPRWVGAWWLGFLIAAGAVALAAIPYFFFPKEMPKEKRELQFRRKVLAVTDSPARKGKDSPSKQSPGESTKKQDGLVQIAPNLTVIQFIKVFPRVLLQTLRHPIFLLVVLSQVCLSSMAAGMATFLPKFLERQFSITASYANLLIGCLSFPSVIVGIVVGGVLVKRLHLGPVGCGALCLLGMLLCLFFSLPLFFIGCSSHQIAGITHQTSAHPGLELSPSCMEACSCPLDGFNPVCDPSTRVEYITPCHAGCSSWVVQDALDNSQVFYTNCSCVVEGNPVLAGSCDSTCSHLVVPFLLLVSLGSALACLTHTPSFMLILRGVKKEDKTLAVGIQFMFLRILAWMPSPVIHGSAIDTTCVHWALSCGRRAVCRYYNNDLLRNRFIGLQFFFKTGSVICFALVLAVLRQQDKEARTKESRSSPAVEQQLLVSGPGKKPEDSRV
Experimental: The inhibition of OATP2B1 was studied using a HEK293 cell-based uptake assay. HEK293 cells were cultured in DMEM supplemented with 10% FBS at 37 °C and 5% CO2 and seeded at 22,500 cells/well on 96-well plates coated with 0.1 mg/mL poly-D-lysine. After 24 h, the medium was replaced with a transduction mix (DMEM with 10% FBS, 5 mM sodium butyrate, and recombinant OATP2B1 or enhanced yellow fluorescent protein [eYFP, negative control] baculoviruses). The baculoviruses were produced as previously described. The uptake assay was performed after approximately 48 h. […] Test solutions also contained the substrate. Cells were washed with warm transport buffer and preincubated at 37 °C. Preincubation solutions were replaced with test solutions and incubated at 37 °C with shaking at 250 rpm. Transport was terminated by aspirating the test solution and washing the wells with an ice-cold transport buffer (150 μL) three times. Wells were left to dry, and cells were lysed with 0.1 M NaOH. […] Total protein concentration was measured from six random wells with a Pierce Coomassie (Bradford) Assay kit (Thermo Fisher Scientific) to ensure a similar protein concentration in the OATP2B1 and eYFP wells.

[2] = target: T2, P-gp (Homo sapiens, UniProt P08183); experiment: Vesicular transport assay, P-gp (N-methyl-quinidine substrate); details: food additive 50 μM; N-methyl-quinidine 2 μM; n = 1
Experimental: (§3) Transport inhibition by 22 food additives was tested with Spodoptera frugiperda (Sf9) derived crude membrane vesicles expressing BCRP, MRP2, or P-gp produced in-house. […] Vesicles (50 μg total protein/well) were diluted in an assay buffer (40 mM MOPS–Tris pH 7.0, 60 mM KCl, and 6 mM MgCl2) with the substrate, and food additives (final concentration of 50 μM) in DMSO were added to the mixture. After preincubation, either the assay buffer or Mg-ATP solution (final concentration 4 mM) was added to the plate to start the reaction. The plate was incubated at 37 °C, and the reaction was stopped with an ice-cold washing mixture (40 mM MOPS-Tris pH 7.0 and 70 mM KCl). Samples were moved to a MultiScreenHTS-FB Plate Glass fiber 1.0 μm/0.65 μm Durapore filter plate (Millipore, USA), and the wells were washed five times with the ice-cold washing mixture. For BCRP and MRP2, the fluorescent substrate was eluted from the filters with 100 μL 0.1 M NaOH. For LY samples, an equal volume of 0.1 M HCl was added to neutralize the samples before fluorescence measurement. The amount of the substrate accumulated into the vesicles was measured by fluorescent detection using a Varioskan LUX microplate reader (Thermo Fisher Scientific, Finland) (Table ). The accumulation into the P-gp vesicles was measured with high-performance liquid chromatography (HPLC) (Agilent 110 series, Agilent Technologies, USA) after lysis and elution of the vesicle contents with 100 μL 3:1 methanol/water + 0.1% formic acid. The column used was a Poroshell 120 EC-C18 with a size of 4.6 × 100 mm and 2.7 μm particle size. Eluent A was 0.1% formic acid, and eluent B was acetonitrile. The flow rate of eluent was 1 mL/min, and the injection volume of samples was 10 μL. […] The retention time for NMQ was around 2.5 min.
(§4) For the efflux transporters, the relative transport was calculated as relativetransport(%ofcontrol)=transportinh,ATP−transportinh,noATP/transportDMSO,ATP−transportDMSO,noATP×100% where transportinh,ATP and transportinh,no ATP are the transport rates in the presence of food additives with or without ATP, respectively, and transportDMSO,ATP and transportDMSO,no ATP are the corresponding transport rates in the presence of the vehicle (DMSO) with or without ATP.
(§5) The half-maximal inhibitory concentrations (IC50) were calculated with GraphPad Prism version 9.0.2 (GraphPad Software, San Diego, CA) using nonlinear regression that fits the data to a four-parameter dose–response curve: relativetransport=minimum+maximum−minimum/1+([I]/IC50)^h where minimum and maximum describe the plateaus of minimal and maximal relative transport (%), [I] is the concentration of inhibitor, and h is the Hill slope, which describes the steepness of the slope.

[3] = target: T3, BCRP (Homo sapiens, UniProt Q9UNQ0); experiment: Vesicular transport assay, BCRP (Lucifer yellow substrate); type: biochemical; set-up: made in house; host or cells: Spodoptera frugiperda Sf9 cells, crude membrane vesicles; details: for inhibition of BCRP substrate accumulation / inhibition at 50 μM: food additive 50 μM; for inhibition of BCRP substrate accumulation: n = 1; for inhibition at 50 μM: Sf9-derived crude membrane vesicles expressing BCRP, pH 7, probe Lucifer yellow 50 μM, n = 1, read-out: inhibition of BCRP substrate accumulation
T3 sequence (Q9UNQ0 1-655): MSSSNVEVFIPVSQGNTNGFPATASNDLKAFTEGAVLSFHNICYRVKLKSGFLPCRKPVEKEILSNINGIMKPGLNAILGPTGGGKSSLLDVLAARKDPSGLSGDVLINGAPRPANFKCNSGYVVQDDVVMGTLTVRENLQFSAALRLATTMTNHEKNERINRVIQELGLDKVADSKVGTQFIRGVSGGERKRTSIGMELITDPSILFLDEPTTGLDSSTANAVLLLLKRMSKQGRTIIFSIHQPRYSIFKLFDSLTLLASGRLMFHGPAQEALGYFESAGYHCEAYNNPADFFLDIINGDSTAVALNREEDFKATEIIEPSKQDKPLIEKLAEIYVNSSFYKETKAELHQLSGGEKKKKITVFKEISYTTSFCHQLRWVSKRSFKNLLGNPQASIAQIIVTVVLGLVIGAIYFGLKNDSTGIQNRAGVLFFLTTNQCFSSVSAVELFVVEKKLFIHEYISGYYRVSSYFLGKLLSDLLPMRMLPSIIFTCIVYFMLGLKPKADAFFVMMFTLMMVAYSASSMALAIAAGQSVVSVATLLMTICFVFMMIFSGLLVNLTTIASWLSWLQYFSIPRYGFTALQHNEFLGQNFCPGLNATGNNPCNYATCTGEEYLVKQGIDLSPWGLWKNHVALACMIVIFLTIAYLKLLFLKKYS
Experimental: as §3, §4, §5

[4] = tested on: Caco-2 cells; experiment: in vitro; details: for effect on sulfasalazine permeability (P app): Caco-2
Experimental: (§1) Caco-2 cells were cultured on 12-well Transwell polycarbonate membrane inserts with a 0.4 μm pore size (Corning Incorporated, Kennebunk, ME) at 37 °C and 5% CO2 for 21–24 days prior to the experiment as described in Hubatsch et al. The culture medium (DMEM, 10% FBS, 1% MEM nonessential amino acids, 100 U/mL penicillin–streptomycin) was changed every second day. Transepithelial electrical resistance (TEER) was measured before and after the permeability assay with a Millicell-ERS electrode (Millipore, Bedford, MA) attached to an epithelial volt ohm meter (EVOM, World Precision Instruments, Sarasota, FL). The permeability assay was performed according to a previously published protocol. […] Sulfasalazine is a substrate of BCRP and OATP2B1. , The DMSO concentration was 0.45–1.5%. Before the experiment, inserts were washed and preincubated in the transport buffer for 20 min shaking at 37 °C. Sulfasalazine and LY permeability was measured in the apical to basolateral direction at five time points (20, 40, 60, 90, and 120 min) and, additionally, in the basolateral to apical direction to calculate the efflux ratio. […] […] LY (250 μM) was added on the donor side of all inserts to measure the integrity of the cell monolayer. Before analysis, samples were centrifuged at 2755g for 30 min, and donor solution and mass balance samples were diluted 1:100. LY fluorescence was measured with a Varioskan LUX microplate reader (Thermo Fisher Scientific) at 430 nm excitation and 538 nm emission. Sulfasalazine was analyzed with ultra-performance liquid chromatography (UPLC) using a Syncronis C18 column (1.7 μm particle size, 50 × 2.1 mm + 0.2 μm Waters online filter) (Thermo Fisher Scientific) coupled with Waters Acquity UPLC interfaced with a PDA detector both controlled by the Waters Empower software version 3. The UPLC was operated in gradient mode at 354 nm. Solvents were 0.015 M phosphate buffer pH 2 (A), acetonitrile (B), 1:1 acetonitrile/methanol (strong needle wash), and 20% acetonitrile (weak needle wash). Column temperature was 30 °C, injection volume was 10 μL, retention time was 1.46 min, and flow rate was 0.5 mL/min. The gradient was 25% B → 70% B (0–3 min), 70% B → 25% B (3.00–3.01 min), and 25% B (3.01–4 min). The data were collected for the first 180 s of each UPLC run.
(§2) In the Caco-2 permeability assay, the apparent permeability (P app) of sulfasalazine was calculated using the following equation: Papp=(dQ/dt)(1/A×C0) where dQ/dt is the rate of permeation across the cells (nmol/min), A is the surface area of the filter (1.12 cm^2), and C 0 is the initial concentration in the donor chamber (μM). The efflux ratio of sulfasalazine was calculated by dividing the P app in the basolateral to the apical direction by the P app in the apical to basolateral direction. The TEER for each cell insert was calculated before and after the experiment by multiplying the mean resistance of three measurements by the surface area of the filter (1.12 cm^2). Mass balance was calculated by dividing the […]. All experiments were done in triplicate wells, and the IC50 and Caco-2 permeability assays were repeated three times.

[5] = target: T4, MRP2 (Homo sapiens, UniProt Q92887); set-up: method as in previous studies; details: previously characterized inhibitors; ref previous studies; read-out: IC50 (95% CI), MRP2; cited from earlier work
T4 construct: made in house; host or cells: Spodoptera frugiperda Sf9 cells, crude membrane vesicles

[6] = target: T1, OATP2B1; details: cited from earlier work; for Ki: read-out: K i, OATP2B1
[7] = target: T3, BCRP; details: cited from earlier work
[8] = target: T2, P-gp; set-up: made in house; host or cells: Spodoptera frugiperda Sf9 cells, crude membrane vesicles; details: ref Kulkarni et al.; cited from earlier work
[9] = target: T4, MRP2; experiment: Vesicular transport assay, MRP2 (CDCF substrate); type: biochemical
Experimental: Transport inhibition by 22 food additives was tested with Spodoptera frugiperda (Sf9) derived crude membrane vesicles expressing BCRP, MRP2, or P-gp produced in-house. […] Vesicles (50 μg total protein/well) were diluted in an assay buffer (40 mM MOPS–Tris pH 7.0, 60 mM KCl, and 6 mM MgCl2) with the substrate, and food additives (final concentration of 50 μM) in DMSO were added to the mixture. After preincubation, either the assay buffer or Mg-ATP solution (final concentration 4 mM) was added to the plate to start the reaction. The plate was incubated at 37 °C, and the reaction was stopped with an ice-cold washing mixture (40 mM MOPS-Tris pH 7.0 and 70 mM KCl). Samples were moved to a MultiScreenHTS-FB Plate Glass fiber 1.0 μm/0.65 μm Durapore filter plate (Millipore, USA), and the wells were washed five times with the ice-cold washing mixture. For BCRP and MRP2, the fluorescent substrate was eluted from the filters with 100 μL 0.1 M NaOH. […] The amount of the substrate accumulated into the vesicles was measured by fluorescent detection using a Varioskan LUX microplate reader (Thermo Fisher Scientific, Finland) (Table ).
as §4, §5

[10] = in vitro; details: human, Caco-2, pH 7.4
Experimental: as §1, §2

[11] = pH 5.5, previously characterized inhibitors, ref previous studies, read-out: IC50, OATP2B1, pH 5.5
[12] = previously characterized inhibitors, ref previous studies
[13] = read-out: IC50 (95% CI), BCRP, previously characterized inhibitors, ref previous studies

T4 sequence (Q92887 whole entry): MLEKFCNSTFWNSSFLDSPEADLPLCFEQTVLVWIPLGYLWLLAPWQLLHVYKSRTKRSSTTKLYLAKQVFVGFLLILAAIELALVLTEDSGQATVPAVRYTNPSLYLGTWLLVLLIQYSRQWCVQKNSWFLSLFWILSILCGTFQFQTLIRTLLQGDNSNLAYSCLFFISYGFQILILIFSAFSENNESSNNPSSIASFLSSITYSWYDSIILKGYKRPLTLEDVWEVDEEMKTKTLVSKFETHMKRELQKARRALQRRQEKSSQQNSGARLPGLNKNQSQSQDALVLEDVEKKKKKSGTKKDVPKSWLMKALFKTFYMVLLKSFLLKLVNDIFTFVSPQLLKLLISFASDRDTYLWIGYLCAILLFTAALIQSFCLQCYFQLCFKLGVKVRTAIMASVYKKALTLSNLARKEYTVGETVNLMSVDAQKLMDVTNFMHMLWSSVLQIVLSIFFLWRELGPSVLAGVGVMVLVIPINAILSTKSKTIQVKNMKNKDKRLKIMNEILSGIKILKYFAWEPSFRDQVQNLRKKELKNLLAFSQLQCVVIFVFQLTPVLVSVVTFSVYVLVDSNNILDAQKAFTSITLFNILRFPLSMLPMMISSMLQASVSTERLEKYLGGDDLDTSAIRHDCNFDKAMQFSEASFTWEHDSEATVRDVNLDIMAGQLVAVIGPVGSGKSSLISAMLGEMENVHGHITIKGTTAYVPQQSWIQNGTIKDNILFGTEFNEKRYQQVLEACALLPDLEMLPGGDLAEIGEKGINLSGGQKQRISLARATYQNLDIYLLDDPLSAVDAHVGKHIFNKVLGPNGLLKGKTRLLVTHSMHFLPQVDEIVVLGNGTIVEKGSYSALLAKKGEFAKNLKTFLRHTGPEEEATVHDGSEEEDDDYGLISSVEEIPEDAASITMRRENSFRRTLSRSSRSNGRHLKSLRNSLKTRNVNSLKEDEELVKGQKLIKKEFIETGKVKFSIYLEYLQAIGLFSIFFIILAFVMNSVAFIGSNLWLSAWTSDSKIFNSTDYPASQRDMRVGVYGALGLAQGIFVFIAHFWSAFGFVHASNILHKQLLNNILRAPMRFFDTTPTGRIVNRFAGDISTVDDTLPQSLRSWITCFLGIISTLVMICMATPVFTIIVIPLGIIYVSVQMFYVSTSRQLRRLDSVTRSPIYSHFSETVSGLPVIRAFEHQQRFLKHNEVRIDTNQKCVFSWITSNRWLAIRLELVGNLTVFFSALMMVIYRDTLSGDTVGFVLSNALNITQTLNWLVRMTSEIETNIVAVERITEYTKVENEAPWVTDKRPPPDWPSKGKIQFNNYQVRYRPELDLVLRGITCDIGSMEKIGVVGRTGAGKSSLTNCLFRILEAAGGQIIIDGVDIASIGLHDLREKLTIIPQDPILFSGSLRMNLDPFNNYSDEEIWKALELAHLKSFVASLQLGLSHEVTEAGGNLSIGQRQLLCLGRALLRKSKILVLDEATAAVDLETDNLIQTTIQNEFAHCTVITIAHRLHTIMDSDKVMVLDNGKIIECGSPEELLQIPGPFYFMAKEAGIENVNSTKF
T2 sequence (P08183 whole entry): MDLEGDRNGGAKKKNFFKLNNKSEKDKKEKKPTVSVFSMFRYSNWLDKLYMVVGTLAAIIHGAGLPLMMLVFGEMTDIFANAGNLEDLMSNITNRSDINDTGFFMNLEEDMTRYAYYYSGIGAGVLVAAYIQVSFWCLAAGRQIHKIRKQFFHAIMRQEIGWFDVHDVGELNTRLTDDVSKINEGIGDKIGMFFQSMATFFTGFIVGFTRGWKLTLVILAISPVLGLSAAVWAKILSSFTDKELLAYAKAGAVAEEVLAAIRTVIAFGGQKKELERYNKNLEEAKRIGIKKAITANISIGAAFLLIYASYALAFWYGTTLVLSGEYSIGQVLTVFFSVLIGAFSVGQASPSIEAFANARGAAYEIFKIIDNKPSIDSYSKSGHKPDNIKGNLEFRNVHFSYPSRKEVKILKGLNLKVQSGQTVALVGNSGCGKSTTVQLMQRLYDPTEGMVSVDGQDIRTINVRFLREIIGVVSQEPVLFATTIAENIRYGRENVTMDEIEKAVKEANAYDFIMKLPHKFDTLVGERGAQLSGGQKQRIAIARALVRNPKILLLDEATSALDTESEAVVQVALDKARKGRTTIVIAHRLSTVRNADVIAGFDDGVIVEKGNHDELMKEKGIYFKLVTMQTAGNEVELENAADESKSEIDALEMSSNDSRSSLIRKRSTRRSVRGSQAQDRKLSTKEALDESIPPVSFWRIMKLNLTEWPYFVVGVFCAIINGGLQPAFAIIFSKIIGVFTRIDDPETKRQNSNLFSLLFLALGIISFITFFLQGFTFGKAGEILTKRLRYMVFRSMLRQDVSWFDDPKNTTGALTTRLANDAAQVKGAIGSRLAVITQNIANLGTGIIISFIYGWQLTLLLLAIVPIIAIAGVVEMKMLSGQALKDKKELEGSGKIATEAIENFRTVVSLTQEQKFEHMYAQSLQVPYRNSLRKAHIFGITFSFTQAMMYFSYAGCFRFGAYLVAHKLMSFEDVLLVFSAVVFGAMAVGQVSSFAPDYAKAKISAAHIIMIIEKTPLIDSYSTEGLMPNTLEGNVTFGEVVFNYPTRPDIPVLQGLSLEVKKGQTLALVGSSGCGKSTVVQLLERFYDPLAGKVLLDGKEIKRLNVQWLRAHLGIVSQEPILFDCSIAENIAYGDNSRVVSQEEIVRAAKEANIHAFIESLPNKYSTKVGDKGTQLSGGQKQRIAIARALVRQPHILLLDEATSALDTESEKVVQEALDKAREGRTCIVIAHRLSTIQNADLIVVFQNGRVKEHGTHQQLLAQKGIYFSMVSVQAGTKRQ

SMILES: CC1=C(/C=C/C(C)=C/C=C/C(C)=C/C=C/C=C(C)/C=C/C=C(\C)C=O)C(C)(C)CCC1 [beta-apo-8’-carotenal]
inhibition of OATP2B1-mediated uptake [1]: did not inhibit these transporters as markedly as beta-carotene | inhibition of P-gp substrate accumulation [2]: did not inhibit these transporters as markedly as beta-carotene | inhibition of BCRP substrate accumulation ([3]; Lucifer yellow 50 μM): did not inhibit these transporters as markedly as beta-carotene

SMILES: CCN(Cc1cccc(S(=O)(=O)[O-])c1)c1ccc(C(=C2C=CC(=[N+](CC)Cc3cccc(S(=O)(=O)[O-])c3)C=C2)c2ccccc2S(=O)(=O)[O-])cc1.[Na+].[Na+] [brilliant blue FCF]
effect on sulfasalazine permeability (P app) [4]: None of the selected food additives showed any effect | IC50 [5]: 3.22 µM | IC50 [6, 11]: 18.4 µM | Ki [6, 12]: 13 µM | IC50 [7, 13]: 1.97 µM

SMILES: COc1ccc(O)c(C(C)(C)C)c1 [butylated hydroxyanisole]
inhibition of OATP2B1-mediated uptake [1]: ≤ 50% | OATP2B1 inhibition ([6]; ref Kulkarni et al.): significant inhibitor | IC50 ([6]; ref Kulkarni et al., read-out: IC50, OATP2B1): > 50 µM | IC50 ([7]; read-out: IC50, BCRP, ref Kulkarni et al.): > 50 µM | BCRP inhibition ([7]; ref Kulkarni et al.): significant inhibitor | inhibition of P-gp substrate accumulation [2]: ≤ 50% | inhibition of BCRP substrate accumulation ([3]; Lucifer yellow 50 μM): ≤ 50% | IC50 [8]: > 50 µM | P-gp inhibition [8]: significant inhibitor

IC50 ([9]; CDCF 5 μM, membrane vesicles, n = 3, read-out: IC50 (95% CI), MRP2): 49 µM | inhibition at 50 μM ([9]; Sf9-derived crude membrane vesicles expressing MRP2, pH 7, probe CDCF 5 μM, food additive 50 μM, n = 1, read-out: inhibition of MRP2 substrate accumulation): ≥ 50% | inhibition of OATP2B1-mediated uptake [1]: OATP2B1-stimulating effect | inhibition of P-gp substrate accumulation [2]: None
SMILES: Cc1cc(C(C)(C)C)c(O)c(C(C)(C)C)c1 [butylated hydroxytoluene]
OATP2B1 inhibition ([6]; ref Kulkarni et al.): did not inhibit; also recorded: OATP2B1-stimulating effect | BCRP inhibition ([7]; ref Kulkarni et al.): did not inhibit | P-gp inhibition [8]: did not inhibit

SMILES: O=S(=O)([O-])c1ccc(N=Nc2cc(S(=O)(=O)[O-])c3ccccc3c2O)c2ccccc12.[Na+].[Na+] [carmoisine]
effect on sulfasalazine permeability (P app) [4]: None of the selected food additives showed any effect | sulfasalazine P app fold change ([4]; food additive 200 μM on both sides of the cell monolayer): ≤ 2 | IC50 [5]: 29 µM | IC50 [6, 11]: 2.9 µM | IC50 ([6]; pH 7.4, previously characterized inhibitors, ref previous studies, read-out: IC50, OATP2B1, pH 7.4): 9.7 µM | IC50 [7, 13]: 5.38 µM

IC50 ([3]; Lucifer yellow 50 μM, membrane vesicles, n = 3, read-out: IC50 (95% CI), BCRP): 22.5 µM | inhibition at 50 μM [3]: ≥ 50%
SMILES: CCCCCCCCCCCCOC(=O)c1cc(O)c(O)c(O)c1 [dodecyl gallate]

inhibition of MRP2 substrate accumulation ([9]; food additive 50 μM, CDCF 5 μM, n = 1): did not inhibit | inhibition at 50 μM ([1]; human, HEK293 cells transduced with recombinant OATP2B1 baculovirus, pH 6, probe 5-carboxyfluorescein 2 μM, n = 1, read-out: inhibition of OATP2B1-mediated uptake): ≥ 50% | inhibition of P-gp substrate accumulation [2]: did not inhibit | inhibition at 50 μM [3]: ≥ 50%
SMILES: CCCCCCCCOC(=O)c1cc(O)c(O)c(O)c1 [octyl gallate]
IC50 [5]: 19.2 µM | IC50 [7, 13]: 10 µM

Papp A→B at 120 min, 500 μM [10]: ≤ 0.1 ×10⁻⁶ cm/s | Papp B→A at 120 min, 500 μM [10]: ~6.5 ×10⁻⁶ cm/s | efflux ratio at 120 min, 500 μM [10]: > 70
SMILES: O=C(O)c1cc(/N=N/c2ccc(S(=O)(=O)Nc3ccccn3)cc2)ccc1O [sulfasalazine, reference compound]

SMILES: O=S(=O)([O-])c1ccc(N=Nc2c(O)ccc3cc(S(=O)(=O)[O-])ccc23)cc1.[Na+].[Na+] [sunset yellow FCF]
effect on sulfasalazine permeability (P app) [4]: None of the selected food additives showed any effect | IC50 [6, 11]: 20.3 µM | Ki [6, 12]: 68.4 µM | IC50 [7, 13]: 10.6 µM and 14.1 µM
